Species: Rattus norvegicus
Assay: DrugMatrix - Regimen: Daily Repeat
Format: toxicity, organism-based, Sprague-Dawley
Set-up: regimen Daily Repeat, gender Male, age 6-8 weeks
Conditions: in vivo, sc, route subcutaneous, […]; for ABSOLUTE BASOPHIL / ABSOLUTE EOSINOPHIL / ABSOLUTE LYMPHOCYTE / ABSOLUTE MONOCYTE / ABSOLUTE SEGMENTED NEUTROPHIL / BASOPHIL / EOSINOPHIL / ERYTHROCYTE COUNT / HEMATOCRIT / HEMOGLOBIN / LEUKOCYTE COUNT / LYMPHOCYTE / MEAN CORPUSCULAR HEMOGLOBIN / MEAN CORPUSCULAR HEMOGLOBIN CONCENTRATION / MEAN CORPUSCULAR VOLUME / MONOCYTE / NEUTROPHIL / NUCLEATED RED BLOOD CELLS / PLATELET COUNT: tissue Blood; for ALANINE AMINOTRANSFERASE / ALBUMIN / ALKALINE PHOSPHATASE / ASPARTATE AMINOTRANSFERASE / BLOOD UREA NITROGEN / CARBON DIOXIDE / CHLORIDE / CHOLESTEROL / CREATINE PHOSPHOKINASE / CREATININE / GLUCOSE / LACTATE DEHYDROGENASE / LIPASE / PHOSPHORUS / POTASSIUM / SODIUM / TOTAL BILIRUBIN / TOTAL PROTEIN / URIC ACID: tissue Plasma
[1] = 0.8 mg/kg, 120 h, dose level Low, time 5 day
[2] = 8 mg/kg, 72 h, dose level High, time 3 day
[3] = 8 mg/kg, 120 h, dose level High, time 5 day

`Oc1c(Cl)cc(Cl)c(Cl)c1Cc1c(O)c(Cl)cc(Cl)c1Cl` [HEXACHLOROPHENE] was tested, and the “ABSOLUTE BASOPHIL” value [1] was 0 CELLS/uL, the “ABSOLUTE EOSINOPHIL” value [1] was 0 CELLS/uL and the “ABSOLUTE LYMPHOCYTE” value [1] was 15077 CELLS/uL. For the same compound, the “ABSOLUTE MONOCYTE” value [1] was 281 CELLS/uL, the “ABSOLUTE SEGMENTED NEUTROPHIL” value [1] was 1342 CELLS/uL and the BASOPHIL [1] was 0%. The EOSINOPHIL [1] was 0%, the “ERYTHROCYTE COUNT” value [1] was 5.52 x10E6/uL and the HEMATOCRIT [1] was 35.07%. The HEMOGLOBIN [1] was 13.27 G/DL, the “LEUKOCYTE COUNT” value [1] was 16.7 x10E3/uL and the LYMPHOCYTE [1] was 90.33%. For the same compound, the “MEAN CORPUSCULAR HEMOGLOBIN” value [1] was 24.07 pg, the “MEAN CORPUSCULAR HEMOGLOBIN CONCENTRATION” value [1] was 37.9 G/DL and the “MEAN CORPUSCULAR VOLUME” value [1] was 63.53 fL. The MONOCYTE [1] was 1.67%, the NEUTROPHIL [1] was 8% and the “NUCLEATED RED BLOOD CELLS” value [1] was 0 /100WBC. The “PLATELET COUNT” value [1] was 1358.33 x10E3/uL, the “ALANINE AMINOTRANSFERASE” value [1] was 45.33 u/L and the ALBUMIN [1] was 4.07 G/DL. For the same compound, the “ALKALINE PHOSPHATASE” value [1] was 296.33 u/L, the “ASPARTATE AMINOTRANSFERASE” value [1] was 78 u/L and the “BLOOD UREA NITROGEN” value [1] was 15.67 mg/dL. The “CARBON DIOXIDE” value [1] was 26.67 mmol/L, the CHLORIDE [1] was 104.67 MEQ/L and the CHOLESTEROL [1] was 74.67 mg/dL. For the same compound, the “CREATINE PHOSPHOKINASE” value [1] was 237 u/L, the CREATININE [1] was 0.35 mg/dL and the GLUCOSE [1] was 154.33 mg/dL. For the same compound, the “LACTATE DEHYDROGENASE” value [1] was 156 u/L, the LIPASE [1] was 11 u/L and the PHOSPHORUS [1] was 11.83 mg/dL. For the same compound, the POTASSIUM [1] was 6.6 MEQ/L, the SODIUM [1] was 144.67 MEQ/L and the “TOTAL BILIRUBIN” value [1] was 0.13 mg/dL. For the same compound, the “TOTAL PROTEIN” value [1] was 5.8 G/DL, the “URIC ACID” value [1] was 1.47 mg/dL and the “ABSOLUTE BASOPHIL” value [2] was 0 CELLS/uL. The “ABSOLUTE EOSINOPHIL” value [2] was 49.67 CELLS/uL, the “ABSOLUTE LYMPHOCYTE” value [2] was 12140.67 CELLS/uL and the “ABSOLUTE MONOCYTE” value [2] was 337 CELLS/uL. For the same compound, the “ABSOLUTE SEGMENTED NEUTROPHIL” value [2] was 1839.33 CELLS/uL, the BASOPHIL [2] was 0% and the EOSINOPHIL [2] was 0.33%. For the same compound, the “ERYTHROCYTE COUNT” value [2] was 5.89 x10E6/uL, the HEMATOCRIT [2] was 36.63% and the HEMOGLOBIN [2] was 13.43 G/DL. The “LEUKOCYTE COUNT” value [2] was 14.37 x10E3/uL, the LYMPHOCYTE [2] was 84.67% and the “MEAN CORPUSCULAR HEMOGLOBIN” value [2] was 22.8 pg. For the same compound, the “MEAN CORPUSCULAR HEMOGLOBIN CONCENTRATION” value [2] was 36.7 G/DL, the “MEAN CORPUSCULAR VOLUME” value [2] was 62.27 fL and the MONOCYTE [2] was 2.33%. The NEUTROPHIL [2] was 12.67%, the “NUCLEATED RED BLOOD CELLS” value [2] was 0 /100WBC and the “PLATELET COUNT” value [2] was 1253 x10E3/uL. For the same compound, the “ALANINE AMINOTRANSFERASE” value [2] was 52 u/L, the ALBUMIN [2] was 4.1 G/DL and the “ALKALINE PHOSPHATASE” value [2] was 314.33 u/L. The “ASPARTATE AMINOTRANSFERASE” value [2] was 87.67 u/L, the “BLOOD UREA NITROGEN” value [2] was 16.67 mg/dL and the “CARBON DIOXIDE” value [2] was 22.33 mmol/L. For the same compound, the CHLORIDE [2] was 105.33 MEQ/L, the CHOLESTEROL [2] was 87.33 mg/dL and the “CREATINE PHOSPHOKINASE” value [2] was 258.67 u/L. The CREATININE [2] was 0.21 mg/dL, the GLUCOSE [2] was 187.33 mg/dL and the “LACTATE DEHYDROGENASE” value [2] was 132 u/L. It also gave an LIPASE [2] of 9.67 u/L, a PHOSPHORUS [2] of 11.9 mg/dL and a POTASSIUM [2] of 5.67 MEQ/L. The SODIUM [2] was 146.53 MEQ/L, the “TOTAL BILIRUBIN” value [2] was 0.17 mg/dL and the “TOTAL PROTEIN” value [2] was 5.93 G/DL. For the same compound, the “URIC ACID” value [2] was 2.47 mg/dL, the “ABSOLUTE BASOPHIL” value [3] was 0 CELLS/uL and the “ABSOLUTE EOSINOPHIL” value [3] was 154 CELLS/uL. For the same compound, the “ABSOLUTE LYMPHOCYTE” value [3] was 13307.33 CELLS/uL, the “ABSOLUTE MONOCYTE” value [3] was 238 CELLS/uL and the “ABSOLUTE SEGMENTED NEUTROPHIL” value [3] was 1100.67 CELLS/uL. The BASOPHIL [3] was 0%, the EOSINOPHIL [3] was 1% and the “ERYTHROCYTE COUNT” value [3] was 5.91 x10E6/uL. For the same compound, the HEMATOCRIT [3] was 35.87%, the HEMOGLOBIN [3] was 13.17 G/DL and the “LEUKOCYTE COUNT” value [3] was 14.8 x10E3/uL. For the same compound, the LYMPHOCYTE [3] was 90%, the “MEAN CORPUSCULAR HEMOGLOBIN” value [3] was 22.3 pg and the “MEAN CORPUSCULAR HEMOGLOBIN CONCENTRATION” value [3] was 36.7 G/DL. For the same compound, the “MEAN CORPUSCULAR VOLUME” value [3] was 60.8 fL, the MONOCYTE [3] was 1.67% and the NEUTROPHIL [3] was 7.33%. For the same compound, the “NUCLEATED RED BLOOD CELLS” value [3] was 0 /100WBC, the “PLATELET COUNT” value [3] was 1301.67 x10E3/uL and the “ALANINE AMINOTRANSFERASE” value [3] was 46 u/L. The ALBUMIN [3] was 4 G/DL, the “ALKALINE PHOSPHATASE” value [3] was 378.33 u/L and the “ASPARTATE AMINOTRANSFERASE” value [3] was 85 u/L. For the same compound, the “BLOOD UREA NITROGEN” value [3] was 16.33 mg/dL, the “CARBON DIOXIDE” value [3] was 27.33 mmol/L and the CHLORIDE [3] was 104.67 MEQ/L. For the same compound, the CHOLESTEROL [3] was 70.33 mg/dL, the “CREATINE PHOSPHOKINASE” value [3] was 346.67 u/L and the CREATININE [3] was 0.2 mg/dL. For the same compound, the GLUCOSE [3] was 174 mg/dL, the “LACTATE DEHYDROGENASE” value [3] was 129.67 u/L and the LIPASE [3] was 9.33 u/L. For the same compound, the PHOSPHORUS [3] was 11.03 mg/dL, the POTASSIUM [3] was 5.65 MEQ/L and the SODIUM [3] was 146 MEQ/L. The “TOTAL BILIRUBIN” value [3] was 0.2 mg/dL, the “TOTAL PROTEIN” value [3] was 5.83 G/DL and the “URIC ACID” value [3] was 1.63 mg/dL.
